Experimental data taken from patent US8557853B2, “Aryl fluoroethyl ureas acting as alpha 2 adrenergic agents” (Allergan, Inc., priority 2007, dated 2013).

Columns and labels:
Type in all cases: cell-based
[1] = biological target: T1, alpha2A receptor (Homo sapiens, UniProt P08913); test: RSAT (Receptor Selection and Amplification Technology) assay, alpha 2A; settings: for EC50 / Alpha 2A EC50: RSAT, transfected NIH-3T3 cells, "not active" = not active at concentrations less than 10 micromolar; for Alpha 2A IA: intrinsic activity: ratio of maximal effect of drug to maximal effect of standard full agonist brimonidine (UK14304)
T1 construct: expressed in transfected cells; host or cells: NIH-3T3 cells
T1 sequence (P08913 1-465): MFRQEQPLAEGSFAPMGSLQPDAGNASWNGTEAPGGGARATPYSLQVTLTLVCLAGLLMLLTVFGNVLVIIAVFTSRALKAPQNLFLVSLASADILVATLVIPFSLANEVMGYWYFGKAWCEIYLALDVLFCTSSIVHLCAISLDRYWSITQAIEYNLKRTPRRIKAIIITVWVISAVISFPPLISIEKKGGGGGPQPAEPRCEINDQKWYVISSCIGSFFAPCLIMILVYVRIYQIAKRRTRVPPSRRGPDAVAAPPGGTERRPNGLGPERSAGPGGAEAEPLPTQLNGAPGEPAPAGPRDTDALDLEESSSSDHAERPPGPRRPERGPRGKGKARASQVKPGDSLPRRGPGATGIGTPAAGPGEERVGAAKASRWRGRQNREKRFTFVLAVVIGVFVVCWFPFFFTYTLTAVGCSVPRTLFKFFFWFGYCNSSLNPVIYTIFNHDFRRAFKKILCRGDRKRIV
Text: (§1) The aryl fluoroethyl ureas of the invention are agonists of alpha2 adrenergic receptors. […] Al, 1995, Pharmacol. Toxicol. 76, pp. 308-311 (incorporated herein by reference) and is also described below. Another reference pertinent to this assay is Conklin et al. (1993) Nature 363:274-6, Receptor Selection and Amplification Technology (RSAT) assay, also incorporated herein by reference.
(§2) The RSAT assay measures a receptor-mediated loss of contact inhibition that results in selective proliferation of receptor-containing cells in a mixed population of confluent cells. The increase in cell number is assessed with an appropriate transfected marker gene such as ∃-galactosidase, the activity of which can be easily measured in a 96-well format. Receptors that activate the G protein, Gq, elicit this response. Alpha 2 receptors, which normally couple to Gi, activate the RSAT response when coexpressed with a hybrid Gq protein that has a Gi receptor recognition domain, called Gq/i5.
(§3) NIH-3T3 cells are plated at a density of 2×10^6 cells in 15 cm dishes and maintained in Dulbecco's modified Eagle's medium supplemented with 10% calf serum. One day later, cells are cotransfected by calcium phosphate precipitation with mammalian expression plasmids encoding p-SV-β-galactosidase (5-10 μg), receptor (1-2 μg) and G protein (1-2 μg). 40 μg salmon sperm DNA may also be included in the transfection mixture. Fresh media is added on the following day and 1-2 days later, cells are harvested and frozen in 50 assay aliquots. Cells are thawed and 100 μl added to 100 μl aliquots of various concentrations of drugs in triplicate in 96-well dishes. Incubations continue 72-96 hr at 37° C. After washing with phosphate-buffered saline, ∃-galactosidase enzyme activity is determined by adding 200 μl of the chromogenic substrate (consisting of 3.5 mM o-nitrophenyl-β-D-galactopyranoside and 0.5% nonidet P-40 in phosphate buffered saline), incubating overnight at 30° C. and measuring optical density at 420 nm. The absorbance is a measure of enzyme activity, which depends on cell number and reflects a receptor-mediated cell proliferation. The efficacy or intrinsic activity is calculated as a ratio of the maximal effect of the drug to the maximal effect of a standard full agonist for each receptor subtype. Brimonidine, also called UK14304, the chemical structure of which is shown below, is used as the standard agonist for the alpha2A, alpha2B and alpha2C receptors.
(§4) The results of the RSAT assay with several exemplary compounds of the invention are disclosed in Table 1 below together with the chemical structures of these compounds. “Not active” means the compounds are not active at concentrations less than 10 micromolar.

[2] = biological target: T2, alpha2B receptor (Homo sapiens, UniProt P18089); test: RSAT (Receptor Selection and Amplification Technology) assay, alpha 2B; settings: for EC50: RSAT, transfected NIH-3T3 cells, "not active" = not active at concentrations less than 10 micromolar, read-out: Alpha 2B EC50; for Alpha 2B IA: intrinsic activity: ratio of maximal effect of drug to maximal effect of standard full agonist brimonidine (UK14304)
T2 construct: expressed in transfected cells; host or cells: NIH-3T3 cells
T2 sequence (P18089 1-450): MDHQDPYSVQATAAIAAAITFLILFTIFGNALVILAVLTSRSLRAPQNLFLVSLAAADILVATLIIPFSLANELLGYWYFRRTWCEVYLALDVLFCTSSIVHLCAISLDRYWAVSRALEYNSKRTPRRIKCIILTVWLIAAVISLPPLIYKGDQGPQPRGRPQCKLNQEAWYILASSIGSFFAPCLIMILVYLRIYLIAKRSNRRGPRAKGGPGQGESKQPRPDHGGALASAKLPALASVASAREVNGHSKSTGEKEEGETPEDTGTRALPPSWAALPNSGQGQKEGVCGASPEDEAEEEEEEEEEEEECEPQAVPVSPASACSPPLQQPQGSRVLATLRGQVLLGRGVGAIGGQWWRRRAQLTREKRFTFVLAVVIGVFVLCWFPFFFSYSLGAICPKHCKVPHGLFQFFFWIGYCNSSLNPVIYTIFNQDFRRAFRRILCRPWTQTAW
Protocol: as §2, §3

[3] = biological target: T3, alpha2C receptor (Homo sapiens, UniProt P18825); test: RSAT (Receptor Selection and Amplification Technology) assay, alpha 2C; settings: for EC50 / Alpha 2C EC50: RSAT, transfected NIH-3T3 cells, "not active" = not active at concentrations less than 10 micromolar; for Alpha 2C IA: intrinsic activity: ratio of maximal effect of drug to maximal effect of standard full agonist brimonidine (UK14304)
T3 construct: expressed in transfected cells; host or cells: NIH-3T3 cells
T3 sequence (P18825 1-462): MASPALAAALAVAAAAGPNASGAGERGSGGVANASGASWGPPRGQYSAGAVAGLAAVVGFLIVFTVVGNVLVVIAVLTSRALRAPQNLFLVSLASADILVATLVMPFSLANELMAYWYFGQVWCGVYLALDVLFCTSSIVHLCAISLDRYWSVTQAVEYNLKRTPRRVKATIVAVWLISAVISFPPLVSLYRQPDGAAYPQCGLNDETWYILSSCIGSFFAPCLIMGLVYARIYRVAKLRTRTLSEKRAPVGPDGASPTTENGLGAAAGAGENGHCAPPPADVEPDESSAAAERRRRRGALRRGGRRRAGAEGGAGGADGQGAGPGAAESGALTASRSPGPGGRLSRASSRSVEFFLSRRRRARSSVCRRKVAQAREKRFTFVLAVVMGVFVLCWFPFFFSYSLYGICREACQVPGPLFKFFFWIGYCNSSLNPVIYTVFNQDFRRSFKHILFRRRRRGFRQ
Text: as §1, §2, §3, §4

Compound	EC50 [1] [µM]	Alpha 2A IA [1]	EC50 [2] [µM]	Alpha 2B IA [2]	EC50 [3] [µM]	Alpha 2C IA [3]	Alpha 2A EC50 [1]	Alpha 2C EC50 [3]
O=C(NCCF)NCc1cccc(Cl)c1F [Compound 1, 1-(3-chloro-2-fluoro-benzyl)-3-(2-fluoro-ethyl)-urea]	1.75	0.54	0.124	1.0	1.13	0.71		
Cc1ccccc1CNC(=O)NCCF [Compound 2, 1-(2-fluoro-ethyl)-3-(2-methyl-benzyl)-urea]			0.152	1.13	1.29	0.78	not active	
O=C(NCCF)NCc1ccccc1F [Compound 3, 1-(2-fluoro-benzyl)-3-(2-fluoro-ethyl)-urea]			0.148	1.1	0.363	0.63	not active	
O=C(NCCF)NCc1cccc(F)c1 [Compound 4, 1-(3-fluoro-benzyl)-3-(2-fluoro-ethyl)-urea]			0.221	1.14	0.368	0.47	not active	
Cc1cccc(CNC(=O)NCCF)c1 [Compound 5, 1-(2-fluoro-ethyl)-3-(3-methyl-benzyl)-urea]	0.98	0.48	0.088	1.26	0.876	0.74		
O=C(NCCF)NCc1ccccc1Br [Compound 6, 1-(2-bromo-benzyl)-3-(2-fluoro-ethyl)-urea]	0.122	0.36	0.085	0.9	0.488	1.1		
O=C(NCCF)NCc1cccc(Br)c1 [Compound 7, 1-(3-bromo-benzyl)-3-(2-fluoro-ethyl)-urea]	> 2	0.46	0.355	0.84	0.556	0.81		
O=C(NCCF)NCc1ccccc1C(F)(F)F [Compound 8, 1-(2-fluoro-ethyl)-3-(2-trifluoromethyl-benzyl)-urea]			0.569	0.8	0.95	0.93	not active	
O=C(NCCF)NCc1cccc(I)c1 [Compound 9, 1-(2-fluoro-ethyl)-3-(3-iodo-benzyl)-urea]	1.48	0.48	0.171	0.76	0.302	0.62		
O=C(NCCF)NCc1cccc(Cl)c1Cl [Compound 10, 1-(2,3-dichloro-benzyl)-3-(2-fluoro-ethyl)-urea]			0.088	0.91	0.446	0.86	not active	
O=C(NCCF)NCc1cccc(C(F)(F)F)c1Cl [Compound 11, 1-(2-chloro-3-trifluoromethyl-benzyl)-3-(2-fluoro-ethyl)-urea]			0.106	0.9	1.09	0.66	not active	
O=C(NCCF)NCc1ccccc1I [Compound 12, 1-(2-fluoro-ethyl)-3-(2-iodo-benzyl)-urea]			0.277	0.89	0.489	0.78	not active	
O=C(NCCF)NCc1cccc(I)c1I [Compound 13, 1-(2-fluoro-ethyl)-3-(2,3-diiodo-benzyl)-urea]	1.01	0.59	0.096	0.86	0.192	0.72		
Cc1cccc(CNC(=O)NCCF)c1Cl [Compound 14, 1-(2-chloro-3-methyl-benzyl)-3-(2-fluoro-ethyl)-urea]	0.366	0.34	0.0085	0.85	0.101	0.66		

Next, values leading:

EC50 [1] [µM]	Alpha 2A IA [1]	EC50 [2] [µM]	Alpha 2B IA [2]	EC50 [3] [µM]	Alpha 2C IA [3]	Alpha 2A EC50 [1]	Alpha 2C EC50 [3]	Compound
0.224	0.46	0.025	1.3	0.297	0.88			O=C(NCCF)NCc1cccc(Br)c1Cl [Compound 15, 1-(3-bromo-2-chloro-benzyl)-3-(2-fluoro-ethyl)-urea]
1.02	0.66	0.093	1.32	0.724	0.72			COc1c(Cl)cccc1CNC(=O)NCCF [Compound 16, 1-(3-chloro-2-methoxy-benzyl)-3-(2-fluoro-ethyl)-urea]
0.678	0.79	0.04	1.25	0.685	0.93			COc1c(C)cccc1CNC(=O)NCCF [Compound 17, 1-(2-fluoro-ethyl)-3-(2-methoxy-3-methyl-benzyl)-urea]
0.4	0.36	0.04	1.24	1.39	0.94			Cc1c(Cl)cccc1CNC(=O)NCCF [Compound 18, 1-(3-chloro-2-methyl-benzyl)-3-(2-fluoro-ethyl)-urea]
		2.53	0.83			not active	not active	COc1c(Br)cccc1CNC(=O)NCCF [Compound 19, 1-(3-bromo-2-methoxy-benzyl)-3-(2-fluoro-ethyl)-urea]
0.147	0.51	0.027	1.14	0.082	0.83			O=C(NCCF)NCc1cccc2c1OCC2 [Compound 20, 1-(2,3-dihydro-benzofuran-7-ylmethyl)-3-(2-fluoro-ethyl)-urea]
		0.115	0.33			not active	not active	O=C(NCCF)Nc1ccc2c(c1)CCC2 [Compound 21, 1-(2-fluoro-ethyl)-3-indan-5-yl-urea]
